The IC50 is the concentration at which inhibition is half-maximal.

Structures can show the parent of a compound that is named as a salt.

T1 sequence (Q92918 whole entry): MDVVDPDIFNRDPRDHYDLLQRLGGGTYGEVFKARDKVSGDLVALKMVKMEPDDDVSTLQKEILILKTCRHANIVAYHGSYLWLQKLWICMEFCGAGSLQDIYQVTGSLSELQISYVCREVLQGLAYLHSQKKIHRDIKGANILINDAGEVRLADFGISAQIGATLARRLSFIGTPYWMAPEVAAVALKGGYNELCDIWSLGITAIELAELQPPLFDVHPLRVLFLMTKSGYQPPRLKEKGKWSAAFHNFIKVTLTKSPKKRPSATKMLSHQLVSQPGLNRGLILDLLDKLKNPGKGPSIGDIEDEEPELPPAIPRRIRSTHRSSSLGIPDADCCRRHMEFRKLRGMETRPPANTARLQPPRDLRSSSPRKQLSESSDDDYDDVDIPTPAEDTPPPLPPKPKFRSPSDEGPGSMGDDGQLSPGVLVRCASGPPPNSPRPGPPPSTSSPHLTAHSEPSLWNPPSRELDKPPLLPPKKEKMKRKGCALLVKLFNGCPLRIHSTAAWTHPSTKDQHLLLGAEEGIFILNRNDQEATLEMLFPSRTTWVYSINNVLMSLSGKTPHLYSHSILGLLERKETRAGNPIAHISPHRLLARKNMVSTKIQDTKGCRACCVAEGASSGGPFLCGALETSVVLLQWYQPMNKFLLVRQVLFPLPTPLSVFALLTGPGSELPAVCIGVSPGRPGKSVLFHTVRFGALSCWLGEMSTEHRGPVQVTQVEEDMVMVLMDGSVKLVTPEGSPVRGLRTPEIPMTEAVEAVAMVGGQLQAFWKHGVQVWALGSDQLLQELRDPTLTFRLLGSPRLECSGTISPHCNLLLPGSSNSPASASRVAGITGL

This assay addresses T1, human recombinant HPK1 (Homo sapiens, UniProt Q92918).
T1 construct: purchased BPS Bioscience
Briefly: Inhibitory activity against human recombinant HPK1 (TR-FRET). It counts as biochemical. As to conditions: ULight-p70S6K peptide, ATP at Km, room temperature, 1 hour, 0.32 to 1000 nM compound. A digest of the protocol: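 Recombinant human HPK1 with ULight-p70S6K peptide and ATP at Km, 1 h at room temperature in HEPES pH 7.4 buffer with Mg2+, Mn2+, EGTA, DTT; compounds 0.32–1000 nM final. EDTA stop, Eu-anti-phosphopeptide TR-FRET read (665 nm); IC50 from % inhibition versus DMSO, binned A–D at 10, 50, 100 nM.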
Background: In TR-FRET formats the signal depends on donor and acceptor labels being close together.
For the compound `COCCn1cc(-c2cnc(Nc3ccnc(-c4c(F)cccc4OC)n3)cc2N2CCC[C@H](N)C2)cn1` [Example 91, (S)-N-(4-(3-aminopiperidin-1-yl)-5-(1-(2-methoxyethyl)-1H-pyrazol-4-yl)pyridin-2-yl)-2-(2-fluoro-6-methoxyphenyl)pyrimidin-4-amine hydrochloride], the IC50 is at most 0.01 µM.
Next, `COc1cccc(F)c1-c1nccc(Nc2cc(N3CCC4(CCNC4)CC3)c(-c3cnn(C4CCOCC4)c3)cn2)n1` [Example 92, N-(4-(2,8-diazaspiro[4.5]decan-8-yl)-5-(1-(tetrahydro-2H-pyran-4-yl)-1H-pyrazol-4-yl)pyridin-2-yl)-2-(2-fluoro-6-methoxyphenyl)pyrimidin-4-amine hydrochloride]: at most 0.01 µM.
With `COc1cccc(F)c1-c1nccc(Nc2cc(N3CCC4(CCNCC4)C3)c(-c3cnn(C4CCOCC4)c3)cn2)n1` [Example 93, N-(4-(2,8-diazaspiro[4.5]decan-2-yl)-5-(1-(tetrahydro-2H-pyran-4-yl)-1H-pyrazol-4-yl)pyridin-2-yl)-2-(2-fluoro-6-methoxyphenyl)pyrimidin-4-amine hydrochloride], the IC50 is 0.01 to 0.05 µM.
On to `COc1cccc(F)c1-c1nccc(Nc2cc(N3CC[C@@H](F)[C@H](O)C3)c(-c3cnn(C4CCOCC4)c3)cn2)n1` [Example 94, (3R,4R)-4-fluoro-1-(2-((2-(2-fluoro-6-methoxyphenyl)pyrimidin-4-yl)amino)-5-(1-(tetrahydro-2H-pyran-4-yl)-1H-pyrazol-4-yl)pyridin-4-yl)piperidin-3-ol], for which the IC50 was at most 0.01 µM.
Turning to `COc1cccc(F)c1-c1nccc(Nc2cc(N3CC[C@H](CO)[C@@H](O)C3)c(-c3cnn(C4CCOCC4)c3)cn2)n1` [Example 95, (3R,4R)-1-(2-((2-(2-fluoro-6-methoxyphenyl)pyrimidin-4-yl)amino)-5-(1-(tetrahydro-2H-pyran-4-yl)-1H-pyrazol-4-yl)pyridin-4-yl)-4-(hydroxymethyl)piperidin-3-ol], the IC50 was at most 0.01 µM.
On to `COc1cccc(F)c1-c1nccc(Nc2cc(N3CC[C@@H](N)C3)c(-c3cnn(C4CCOCC4)c3)cn2)n1` [Example 96, (R)-N-(4-(3-aminopyrrolidin-1-yl)-5-(1-(tetrahydro-2H-pyran-4-yl)-1H-pyrazol-4-yl)pyridin-2-yl)-2-(2-fluoro-6-methoxyphenyl)pyrimidin-4-amine hydrochloride], for which the IC50 was at most 0.01 µM.
In the case of `COc1cccc(F)c1-c1nccc(Nc2cc(N3CC[C@H](N)C3)c(-c3cnn(C4CCOCC4)c3)cn2)n1` [Example 97, (S)-N-(4-(3-aminopyrrolidin-1-yl)-5-(1-(tetrahydro-2H-pyran-4-yl)-1H-pyrazol-4-yl)pyridin-2-yl)-2-(2-fluoro-6-methoxyphenyl)pyrimidin-4-amine hydrochloride], the IC50 was at most 0.01 µM.
As to `COc1cccc(F)c1-c1nccc(Nc2cc(N3CCC[C@H](N)C3)c(-c3cnc(C4CCN(C)CC4)s3)cn2)n1` [Example 98, (S)-N-(4-(3-aminopiperidin-1-yl)-5-(2-(1-methylpiperidin-4-yl)thiazol-5-yl)pyridin-2-yl)-2-(2-fluoro-6-methoxyphenyl)pyrimidin-4-amine hydrochloride], the IC50 is at most 0.01 µM.
Take `N[C@H]1CCCN(c2cc(Nc3ccnc(-c4cc5nccnc5cc4F)n3)ncc2-c2ccc(C3CCOCC3)nc2)C1` [Example 99, (S)-4-(3-aminopiperidin-1-yl)-N-(2-(7-fluoroquinoxalin-6-yl)pyrimidin-4-yl)-6′-(tetrahydro-2H-pyran-4-yl)-[3,3′-bipyridin]-6-amine hydrochloride]: the IC50 was 0.01 to 0.05 µM.
As to `COc1cccc(F)c1-c1nc(Nc2cc(N3CCC[C@H](N)C3)c(-c3cnn(CC(F)(F)F)c3)cn2)ccc1F` [Example 100, 4-((S)-3-aminopiperidin-1-yl)-N-(5-fluoro-6-(2-fluoro-6-methoxyphenyl)pyridin-2-yl)-5-(1-(2,2,2-trifluoroethyl)-1H-pyrazol-4-yl)pyridin-2-amine hydrochloride], the IC50 was at most 0.01 µM.
With `COc1cc(CO)cc(F)c1-c1nccc(Nc2cc(N3CCC[C@H](N)C3)c(-c3cnn(C(F)F)c3)cn2)n1` [Example 101, (S)-(4-(4-((4-(3-aminopiperidin-1-yl)-5-(1-(difluoromethyl)-1H-pyrazol-4-yl)pyridin-2-yl)amino)pyrimidin-2-yl)-3-fluoro-5-methoxyphenyl)methanol hydrochloride], the IC50 was at most 0.01 µM.
As for `COc1cc(CO)cc(F)c1-c1nccc(Nc2cc(N3CCC[C@H](N)C3)c(-c3cnn(CC(F)(F)F)c3)cn2)n1` [Example 102, (S)-(4-(4-((4-(3-aminopiperidin-1-yl)-5-(1-(2,2,2-trifluoroethyl)-1H-pyrazol-4-yl)pyridin-2-yl)amino)pyrimidin-2-yl)-3-fluoro-5-methoxyphenyl)methanol hydrochloride], the IC50 was at most 0.01 µM.
For `COc1cc(CO)cc(F)c1-c1nccc(Nc2cc(N3CCC[C@H](N)C3)c(C#CC3CCOCC3)cn2)n1` [Example 103, (S)-(4-(4-((4-(3-aminopiperidin-1-yl)-5-((tetrahydro-2H-pyran-4-yl)ethynyl)pyridin-2-yl)amino)pyrimidin-2-yl)-3-fluoro-5-methoxyphenyl)methanol hydrochloride], the concentration for half-maximal inhibition (IC50) was at most 0.01 µM.
Regarding `COc1cc(CN(C)C)cc(F)c1-c1nccc(Nc2cc(N3CCC[C@H](N)C3)c(-c3cnn(C(F)F)c3)cn2)n1` [Example 104, (S)-N-(4-(3-aminopiperidin-1-yl)-5-(1-(difluoromethyl)-1H-pyrazol-4-yl)pyridin-2-yl)-2-(4-((dimethylamino)methyl)-2-fluoro-6-methoxyphenyl)pyrimidin-4-amine hydrochloride], the IC50 was at most 0.01 µM.
In the case of `COc1cc(CN(C)C)cc(F)c1-c1nccc(Nc2cc(N3CCC[C@H](N)C3)c(-c3cnn(CC(F)(F)F)c3)cn2)n1` [Example 105, (S)-N-(4-(3-aminopiperidin-1-yl)-5-(1-(2,2,2-trifluoroethyl)-1H-pyrazol-4-yl)pyridin-2-yl)-2-(4-((dimethylamino)methyl)-2-fluoro-6-methoxyphenyl)pyrimidin-4-amine hydrochloride], the half-inhibitory concentration (IC50) was at most 0.01 µM.
Turning to `COc1cc(CN(C)C)cc(F)c1-c1nccc(Nc2cc(N3CCC[C@H](N)C3)c(C#CC3CCOCC3)cn2)n1` [Example 106, (S)-N-(4-(3-aminopiperidin-1-yl)-5-((tetrahydro-2H-pyran-4-yl)ethynyl)pyridin-2-yl)-2-(4-((dimethylamino)methyl)-2-fluoro-6-methoxyphenyl)pyrimidin-4-amine hydrochloride], the IC50 is at most 0.01 µM.
Regarding `COc1cccc(F)c1-c1nccc(Nc2cc(N3CCC[C@H](N)C3)c(-c3cnn(C(F)(F)F)c3)cn2)n1` [Example 107, (S)-N-(4-(3-aminopiperidin-1-yl)-5-(1-(trifluoromethyl)-1H-pyrazol-4-yl)pyridin-2-yl)-2-(2-fluoro-6-methoxyphenyl)pyrimidin-4-amine hydrochloride], the IC50 is at most 0.01 µM.
Next, `COc1cc(F)cc(F)c1-c1nccc(Nc2cc(N3CCC[C@H](N)C3)c(-c3cnn(C(F)F)c3)cn2)n1` [Example 108, (S)-N-(4-(3-aminopiperidin-1-yl)-5-(1-(difluoromethyl)-1H-pyrazol-4-yl)pyridin-2-yl)-2-(2,4-difluoro-6-methoxyphenyl)pyrimidin-4-amine hydrochloride]: at most 0.01 µM.
For `COc1cc(F)cc(F)c1-c1nccc(Nc2cc(N3CCC[C@H](N)C3)c(-c3cnn(CC(F)(F)F)c3)cn2)n1` [Example 109, (S)-N-(4-(3-aminopiperidin-1-yl)-5-(1-(2,2,2-trifluoroethyl)-1H-pyrazol-4-yl)pyridin-2-yl)-2-(2,4-difluoro-6-methoxyphenyl)pyrimidin-4-amine], the IC50 is at most 0.01 µM.
For `COc1cc(F)cc(F)c1-c1nccc(Nc2cc(N3CCC[C@H](N)C3)c(C#CC3CCOCC3)cn2)n1` [Example 110, (S)-N-(4-(3-aminopiperidin-1-yl)-5-((tetrahydro-2H-pyran-4-yl)ethynyl)pyridin-2-yl)-2-(2,4-difluoro-6-methoxyphenyl)pyrimidin-4-amine], the IC50 was at most 0.01 µM.
In the case of `COc1cccc(F)c1-c1nccc(Nc2cc(N3CCC[C@H](N)C3)c(C#Cc3cnn(C(F)(F)F)c3)cn2)n1` [Example 111, (S)-N-(4-(3-aminopiperidin-1-yl)-5-((1-(trifluoromethyl)-1H-pyrazol-4-yl)ethynyl)pyridin-2-yl)-2-(2-fluoro-6-methoxyphenyl)pyrimidin-4-amine hydrochloride], the IC50 was at most 0.01 µM.
In the case of `COc1cccc(F)c1-c1nc(Nc2cc(N3CCC[C@H](O)C3)c(-c3cnn(C4CCOCC4)c3)cn2)ccc1C(N)=O` [Example 112, 2-(2-fluoro-6-methoxyphenyl)-6-((4-((S)-3-hydroxypiperidin-1-yl)-5-(1-(tetrahydro-2H-pyran-4-yl)-1H-pyrazol-4-yl)pyridin-2-yl)amino)nicotinamide], the IC50 was at most 0.01 µM.
`COc1cccc(F)c1-c1nc(Nc2cc(N3CCC[C@H](O)C3)c(-c3cnn(C4CCOCC4)c3)cn2)ccc1C(=O)N(C)C` [Example 113, 2-(2-fluoro-6-methoxyphenyl)-6-((4-((S)-3-hydroxypiperidin-1-yl)-5-(1-(tetrahydro-2H-pyran-4-yl)-1H-pyrazol-4-yl)pyridin-2-yl)amino)-N,N-dimethylnicotinamide]: the IC50 fell in the range of 0.01 to 0.05 µM.
Next, `COc1cccc(F)c1-c1nc(Nc2cc(N3CCC[C@H](N)C3)c(C#Cc3cnn(C(F)(F)F)c3)cn2)ccc1F` [Example 114, 4-((S)-3-aminopiperidin-1-yl)-N-(5-fluoro-6-(2-fluoro-6-methoxyphenyl)pyridin-2-yl)-5-((1-(trifluoromethyl)-1H-pyrazol-4-yl)ethynyl)pyridin-2-amine hydrochloride]: at most 0.01 µM.
